Measurements reported in article PMC8717895 (Neuro-oncology Advances, 2021).
“Also recorded” adds a separate entry of the source. Like-named read-outs stand apart in the source and are kept apart here. Marks after values point to notes of the source that are not given here.

Assay type: in vivo, human
[1] = stratum A, Level 1 (100 mg/m^2), Grade 1/2
[2] = stratum A, Level 1 (100 mg/m^2), Grade 3/4
[3] = stratum A, Level 2 (130 mg/m^2), Grade 1/2
[4] = stratum A, Level 2 (130 mg/m^2), Grade 3/4
[5] = stratum A, Level 3 (170 mg/m^2), Grade 1/2
[6] = stratum A, Level 3 (170 mg/m^2), Grade 3/4
[7] = stratum A, Level 4 (220 mg/m^2), Grade 1/2
[8] = stratum A, Level 4 (220 mg/m^2), Grade 3/4

With `CC1(COc2ccc3c(c2)ncn3-c2ccc3cccc(N4CCC(N)CC4)c3n2)COC1` [crenolanib] the “Recommended pediatric phase II dosage” value (once daily with food, with or without RT) was 170 mg/m^2, the ALT increased [1] was 10 (83%) and the AST increased [1] was 6 (50%). For the same compound, the Abdominal pain [1] was 2 (17%), the Alkaline phosphatase increased [1] was 1 (8%) and the Anemia [1] was 3 (25%). For the same compound, the Anorexia [1] was 1 (8%), the Diarrhea [1] was 2 (17%) and the Dyspepsia [1] was 2 (17%). The GGT increased [1] was 5 (42%), the Headache [1] was 0 and the Hematuria [1] was 3 (25%). For the same compound, the Hypermagnesemia [1] was 3 (25%), the Hypernatremia [1] was 1 (8%) and the Hypoalbuminemia [1] was 7 (58%). The Hypocalcemia [1] was 1 (8%), the Hypokalemia [1] was 5 (42%) and the Hypophosphatemia [1] was 7 (58%). For the same compound, the Lipase increased [1] was 5 (42%), the Lymphocyte count decreased [1] was 2 (17%) and the Nausea [1] was 8 (67%). For the same compound, the Neutrophil count decreased [1] was 0, the Platelet count decreased [1] was 4 (33%) and the Proteinuria [1] was 4 (33%). For the same compound, the Serum amylase increased [1] was 4 (33%), the Stomach pain [1] was 1 (8%) and the Vomiting [1] was 8 (67%). The “White blood cell decreased” value [1] was 4 (33%), the ALT increased [2] was 1 (8%) and the AST increased [2] was 0. The Abdominal pain [2] was 0, the Alkaline phosphatase increased [2] was 0 and the Anemia [2] was 1 (8%). The Anorexia [2] was 0, the Diarrhea [2] was 0 and the Dyspepsia [2] was 0. For the same compound, the GGT increased [2] was 3 (25%), the Headache [2] was 1 (8%) and the Hematuria [2] was 0. For the same compound, the Hypermagnesemia [2] was 0, the Hypernatremia [2] was 0 and the Hypoalbuminemia [2] was 0. For the same compound, the Hypocalcemia [2] was 0, the Hypokalemia [2] was 1 (8%) and the Hypophosphatemia [2] was 0. For the same compound, the Lipase increased [2] was 2 (17%), the Lymphocyte count decreased [2] was 8 (67%) and the Nausea [2] was 0. For the same compound, the Neutrophil count decreased [2] was 5 (42%)^a, the Platelet count decreased [2] was 1 (8%) and the Proteinuria [2] was 1 (8%). For the same compound, the Serum amylase increased [2] was 2 (17%), the Stomach pain [2] was 0 and the Vomiting [2] was 1 (8%). For the same compound, the “White blood cell decreased” value [2] was 5 (42%), the ALT increased [3] was 2 (33%) and the AST increased [3] was 4 (67%). For the same compound, the Abdominal pain [3] was 3 (50%), the Alkaline phosphatase increased [3] was 3 (50%) and the Anemia [3] was 3 (50%). The Anorexia [3] was 1 (17%), the Diarrhea [3] was 3 (50%) and the Dyspepsia [3] was 0. For the same compound, the GGT increased [3] was 5 (83%), the Headache [3] was 1 (17%) and the Hematuria [3] was 2 (33%). The Hypermagnesemia [3] was 1 (17%), the Hypernatremia [3] was 1 (17%) and the Hypoalbuminemia [3] was 2 (33%). For the same compound, the Hypocalcemia [3] was 2 (33%), the Hypokalemia [3] was 1 (17%) and the Hypophosphatemia [3] was 3 (50%). For the same compound, the Lipase increased [3] was 2 (33%), the Lymphocyte count decreased [3] was 0 and the Nausea [3] was 5 (83%). For the same compound, the Neutrophil count decreased [3] was 1 (17%), the Platelet count decreased [3] was 3 (50%) and the Proteinuria [3] was 5 (83%). For the same compound, the Serum amylase increased [3] was 0, the Stomach pain [3] was 2 (33%) and the Vomiting [3] was 6 (100%). For the same compound, the “White blood cell decreased” value [3] was 3 (50%), the ALT increased [4] was 2 (33%) and the AST increased [4] was 0. For the same compound, the Abdominal pain [4] was 0, the Alkaline phosphatase increased [4] was 0 and the Anemia [4] was 0. The Anorexia [4] was 0, the Diarrhea [4] was 0 and the Dyspepsia [4] was 0. For the same compound, the GGT increased [4] was 0, the Headache [4] was 1 (17%) and the Hematuria [4] was 0. For the same compound, the Hypermagnesemia [4] was 0, the Hypernatremia [4] was 0 and the Hypoalbuminemia [4] was 0. The Hypocalcemia [4] was 0, the Hypokalemia [4] was 1 (17%) and the Hypophosphatemia [4] was 0. The Lipase increased [4] was 0, the Lymphocyte count decreased [4] was 6 (100%) and the Nausea [4] was 0. For the same compound, the Neutrophil count decreased [4] was 2 (33%), the Platelet count decreased [4] was 0 and the Proteinuria [4] was 1 (17%). For the same compound, the Serum amylase increased [4] was 1 (17%), the Stomach pain [4] was 0 and the Vomiting [4] was 0. For the same compound, the “White blood cell decreased” value [4] was 2 (33%), the ALT increased [5] was 4 (67%) and the AST increased [5] was 5 (83%). The Abdominal pain [5] was 2 (33%), the Alkaline phosphatase increased [5] was 2 (33%) and the Anemia [5] was 3 (50%). For the same compound, the Anorexia [5] was 3 (50%), the Diarrhea [5] was 3 (50%) and the Dyspepsia [5] was 1 (17%). For the same compound, the GGT increased [5] was 4 (67%), the Headache [5] was 0 and the Hematuria [5] was 3 (50%). The Hypermagnesemia [5] was 3 (50%), the Hypernatremia [5] was 2 (33%) and the Hypoalbuminemia [5] was 4 (67%). For the same compound, the Hypocalcemia [5] was 1 (17%), the Hypokalemia [5] was 2 (33%) and the Hypophosphatemia [5] was 3 (50%). For the same compound, the Lipase increased [5] was 1 (17%), the Lymphocyte count decreased [5] was 2 (33%) and the Nausea [5] was 5 (83%). The Neutrophil count decreased [5] was 1 (17%), the Platelet count decreased [5] was 2 (33%) and the Proteinuria [5] was 5 (83%). The Serum amylase increased [5] was 3 (50%), the Stomach pain [5] was 0 and the Vomiting [5] was 6 (100%). For the same compound, the “White blood cell decreased” value [5] was 4 (67%), the ALT increased [6] was 2 (33%) and the AST increased [6] was 1 (17%). It also gave an Abdominal pain [6] of 0, an Alkaline phosphatase increased [6] of 0 and an Anemia [6] of 0. The Anorexia [6] was 0, the Diarrhea [6] was 0 and the Dyspepsia [6] was 0. The GGT increased [6] was 2 (33%)^a, the Headache [6] was 0 and the Hematuria [6] was 0. The Hypermagnesemia [6] was 0, the Hypernatremia [6] was 0 and the Hypoalbuminemia [6] was 0. The Hypocalcemia [6] was 0, the Hypokalemia [6] was 2 (33%) and the Hypophosphatemia [6] was 0. The Lipase increased [6] was 0, the Lymphocyte count decreased [6] was 4 (67%) and the Nausea [6] was 0. For the same compound, the Neutrophil count decreased [6] was 0, the Platelet count decreased [6] was 0 and the Proteinuria [6] was 0. It also gave a Serum amylase increased [6] of 0, a Stomach pain [6] of 0 and a Vomiting [6] of 0. For the same compound, the “White blood cell decreased” value [6] was 1 (17%), the ALT increased [7] was 6 (75%) and the AST increased [7] was 7 (88%). For the same compound, the Abdominal pain [7] was 1 (13%), the Alkaline phosphatase increased [7] was 1 (13%) and the Anemia [7] was 6 (75%). The Anorexia [7] was 2 (25%), the Diarrhea [7] was 4 (50%) and the Dyspepsia [7] was 0. The GGT increased [7] was 6 (75%), the Headache [7] was 1 (13%) and the Hematuria [7] was 2 (25%). The Hypermagnesemia [7] was 5 (63%), the Hypernatremia [7] was 0 and the Hypoalbuminemia [7] was 6 (75%). The Hypocalcemia [7] was 3 (38%), the Hypokalemia [7] was 3 (38%) and the Hypophosphatemia [7] was 6 (75%). For the same compound, the Lipase increased [7] was 2 (25%), the Lymphocyte count decreased [7] was 0 and the Nausea [7] was 7 (88%). For the same compound, the Neutrophil count decreased [7] was 1 (13%), the Platelet count decreased [7] was 3 (38%) and the Proteinuria [7] was 5 (63%). For the same compound, the Serum amylase increased [7] was 3 (38%), the Stomach pain [7] was 0 and the Vomiting [7] was 8 (100%). The “White blood cell decreased” value [7] was 7 (88%), the ALT increased [8] was 2 (25%)^a and the AST increased [8] was 0. It also gave an Abdominal pain [8] of 0, an Alkaline phosphatase increased [8] of 0 and an Anemia [8] of 0. It also gave an Anorexia [8] of 0, a Diarrhea [8] of 0 and a Dyspepsia [8] of 0. For the same compound, the GGT increased [8] was 1 (13%)^a, the Headache [8] was 0 and the Hematuria [8] was 0. It also gave a Hypermagnesemia [8] of 0, a Hypernatremia [8] of 0 and a Hypoalbuminemia [8] of 0. For the same compound, the Hypocalcemia [8] was 1 (13%), the Hypokalemia [8] was 2 (25%) and the Hypophosphatemia [8] was 1 (13%). The Lipase increased [8] was 0, the Lymphocyte count decreased [8] was 8 (100%) and the Nausea [8] was 0. The Neutrophil count decreased [8] was 0, the Platelet count decreased [8] was 0 and the Proteinuria [8] was 0. For the same compound, the Serum amylase increased [8] was 0, the Stomach pain [8] was 0 and the Vomiting [8] was 0. For the same compound, the “White blood cell decreased” value [8] was 0, the “DLTs attributable to crenolanib during the DLT observation period” value (from here on “DLTs attributable”) (stratum A, dose level 1) was “grade 4 neutropenia” and the “DLTs attributable” value (stratum A, dose level 3) was “grade 3 gamma-glutamyl transferase (GGT) elevation”. The “DLTs attributable” value (stratum A, dose level 4) was “grade 3 GGT elevation; also recorded: grade 3 ALT elevation”, the “patients having grade 3/4 elevations of ALT, AST, GGT, or alkaline phosphatase” value (stratum A, during and after the DLT period) was 28% and the “Maximum tolerated dose (MTD)” value (stratum A, once daily during and after RT, pediatric) was 170 mg/m^2. For the same compound, the “Most common grade 3/4 toxicity” value (stratum A, resolved with drug interruption) was “leukopenia”.
